{
  "source": "patent US10987360B2",
  "about": "“Hepatitis B core protein modulators” (Assembly Biosciences, Inc., priority 2016, dated 2021)",
  "key": {"AD38 cells": {"tested_on": "AD38 cells", "assay": "Viability of AD38 cells, Promega CellTiter-Glo", "format": "cell-based", "conditions": "6 days incubation, controls being 100%; for AD38 Viability Normalized Result (cmpd/DMSO %) at 10 μM: Table 4, compounds of Group 2; for AD38 Viability Normalized Result (CPAM/DMSO %) at 10 μM: Table 6, compounds of Group 4", "description": "(§1) Assay Measuring Activity of Compounds on Viral Production in and on Viability of AD38 Cells\n(§2) AD38 cells grown in a 175 cm flask with “Growth Medium” (DMEM/F12 (1:1) (cat #SH30023.01, Hyclone, 1×Pen/step (cat #: 30-002-CL, Mediatech, Inc), 10% FBS (cat #: 101, Tissue Culture Biologics), 250 μg/mL G418 (cat #: 30-234-CR, Mediatech, Inc), 1 μg/mL Tetracycline (cat #: T3325, Teknova)) were detached with 0.25% trypsin. Tetracycline-free “treatment medium” (15 mL DMEM/F12 (1:1) (cat #SH30023.01, Hyclone, 1×Pen/step (cat #: 30-002-CL, Mediatech, Inc), with 2% FBS, Tet-system approved (cat #: 631106, Clontech) were then added to mix and spun at 1300 rpm for 5 min. Pelleted cells were then re-suspended/washed with 50 mL of 1×PBS 2 times and 10 mL Treatment Medium one time. AD38 cells were then re-suspended with 10 mL of Treatment Medium and counted. Wells of a collagen coated 96-well NUNC microtiter plate were seeded at 50,000/well in 180 μL of Treatment Medium, and 20 μL of in treatment media with either 10% DMSO (Control) or a 10× solution of compound in 10% DMSO was added. Plates were incubated for 6 days at 37° C.\nAt the end of compound treatment period cell viability was assessed using a Promega CellTiter-Glo protocol. All supernatant was removed the previously treated 96-well microtiter plate, and 50 μL Tetracycline-free treatment medium (DMEM/F12 (1:1), 1×Pen/step (cat #: 30-002-CL, Mediatech, Inc), with 2% FBS, Tet-system approved (cat #: 631106, Clontech), and 1% DMSO was added back to each well. Another 50 μL of CellTiter-Glo reagent solution (Promega, G7573) was then added at room temperature and the contents mixed for 2 minutes on an orbital shaker to induce cell lysis. This was followed by incubation at room temperature for 10 minutes to stabilize the luminescent signal. The luminescence was recorded for 0.2 seconds per well on a Tecan multimode platereader (Infinite M1000 pro). The luminescent signal from each well was normalized against that of untreated (DMSO) control wells. All results in Tables 3-6 were reported with percent viability (with controls being 100%)."}, "[1]": {"tested_on": "HBV viral load in AD38 cells", "assay": "Viral load production in AD38 cells, quantitative PCR of the core sequence in supernatant", "format": "cell-based", "conditions": "Hepatitis B virus, 144 h, 6 days incubation", "description": "as §1, §2\nViral load production was assayed by quantitative PCR of the core sequence. Briefly, 5 μL of clarified supernatant was added to a PCR reaction mixture that contained forward primers HBV-f 5′-CTGTGCCTTGGGTGGCTTT-3′, Reverse primers HBV-r 5′-[…]-3′ and Fluorescent TaqMan™ Probes HBV-probe 5′-FAM/AGCTCCAAA/ZEN/[…]/3IABkFQ-3′ in Quanta Biosciences PerfeCTa® qPCR Toughmix®, and was subsequently on an Applied Biosystems VIIA7 in a final volume of 20 μL. The PCR mixture was incubated at 45° C. for 5 minutes, then 95° C. for 10 min, followed by 40 cycles of 10 seconds at 95° C. and 20 seconds at 60° C. Viral load was quantitated against known standards by using ViiA™ 7 Software. Viral load in the supernatant from wells with treated cells were compared against viral load in supernatant from DMSO control wells (≥3 per plate)."}, "[2]": {"conditions": "Table 4, compounds of Group 2, read-out: AD38 Viral Load (%) (VL with cmpd/VL in DMSO control) at 10 μM"}, "[3]": {"conditions": "Table 6, compounds of Group 4, read-out: AD38 Viral Load (CpAM/DMSO %) at 10 μM"}},
  "note": "Like-named read-outs stand apart in the source and are kept apart here.",
  "data": [
    {"smiles": "CC1=C(C)S(=O)(=O)c2ccc(C(=O)NCc3cnc(-c4ccc(C#N)cc4F)s3)cc2NC1=O", "note": "[Compound C10-02]", "values": [
      {"measurement": "AD38 Viability Normalized Result (cmpd/DMSO %) at 10 μM", "setting": "AD38 cells", "result": 95, "unit": "%"},
      {"measurement": "activity at 10 µM", "setting": "[1]; [2]", "result": 4, "unit": "%"}
    ]},
    {"smiles": "CC1=C(C)S(=O)(=O)c2ccc(C(=O)NCc3cnc(-n4cccn4)s3)cc2NC1=O", "note": "[Compound C10-04]", "values": [
      {"measurement": "AD38 Viability Normalized Result (cmpd/DMSO %) at 10 μM", "setting": "AD38 cells", "result": 92, "unit": "%"},
      {"measurement": "activity at 10 µM", "setting": "[1]; [2]", "result": 1.8, "unit": "%"}
    ]},
    {"smiles": "CC1=C(C)S(=O)(=O)c2ccc(C(=O)NCc3cnc(-c4ccc(OCCCN(C)C)cc4)s3)cc2NC1=O", "note": "[Compound C10-05]", "values": [
      {"measurement": "AD38 Viability Normalized Result (cmpd/DMSO %) at 10 μM", "setting": "AD38 cells", "result": 90, "unit": "%"},
      {"measurement": "activity at 10 µM", "setting": "[1]; [2]", "result": 11.3, "unit": "%"}
    ]},
    {"smiles": "CC1=C(C)C(=O)Nc2cc(C(=O)NCc3cnc(C(F)(F)F)s3)ccc2S1", "note": "[Compound C12-01, 2,3-Dimethyl-4-oxo-N-((2-(trifluoromethyl)thiazol-5-yl)methyl)-4,5-dihydrobenzo[b][1,4]thiazepine-7-carboxamide]", "values": [
      {"measurement": "AD38 Viability Normalized Result (cmpd/DMSO %) at 10 μM", "setting": "AD38 cells", "result": 97, "unit": "%"},
      {"measurement": "activity at 10 µM", "setting": "[1]; [2]", "result": 15.5, "unit": "%"}
    ]},
    {"smiles": "CC1=C(C)C(=O)Nc2cc(C(=O)NCc3cnc(-c4ccc(C#N)cc4F)s3)ccc2S1", "note": "[Compound C12-02]", "values": [
      {"measurement": "AD38 Viability Normalized Result (cmpd/DMSO %) at 10 μM", "setting": "AD38 cells", "result": 99, "unit": "%"},
      {"measurement": "activity at 10 µM", "setting": "[1]; [2]", "result": 21.4, "unit": "%"}
    ]},
    {"smiles": "N#Cc1ccc(-c2ncc(CNC(=O)c3ccc4cc[nH]c4c3)s2)c(F)c1", "note": "[Compound C13-02, N-((2-(4-cyano-2-fluorophenyl)thiazol-5-yl)methyl)-1H-indole-6-carboxamide]", "values": [
      {"measurement": "AD38 Viability Normalized Result (CPAM/DMSO %) at 10 μM", "setting": "AD38 cells", "result": 105, "unit": "%"},
      {"measurement": "activity at 10 µM", "setting": "[1]; [3]", "result": 16.1, "unit": "%"}
    ]},
    {"smiles": "Cc1c[nH]c2cc(C(=O)NCc3cnc(C(F)(F)F)s3)ccc12", "note": "[Compound C14-01, 3-Methyl-N-((2-(trifluoromethyl)thiazol-5-yl)methyl)-1H-indole-6-carboxamide]", "values": [
      {"measurement": "AD38 Viability Normalized Result (CPAM/DMSO %) at 10 μM", "setting": "AD38 cells", "result": 113, "unit": "%"},
      {"measurement": "activity at 10 µM", "setting": "[1]; [3]", "result": 63, "unit": "%"}
    ]},
    {"smiles": "N#Cc1ccc(-c2ncc(CNC(=O)c3ccc4c(CC5CCOCC5)c[nH]c4c3)s2)c(F)c1", "note": "[Compound C18-02, N-((2-(4-cyano-2-fluorophenyl)thiazol-5-yl)methyl)-3-((tetrahydro-2H-pyran-4-yl)methyl)-1H-indole-6-carboxamide]", "values": [
      {"measurement": "AD38 Viability Normalized Result (CPAM/DMSO %) at 10 μM", "setting": "AD38 cells", "result": 106, "unit": "%"},
      {"measurement": "activity at 10 µM", "setting": "[1]; [3]", "result": 62.9, "unit": "%"}
    ]},
    {"smiles": "O=C(NCc1cnc(C(F)(F)F)s1)c1ccc2c(C3CCCCC3)c[nH]c2c1", "note": "[Compound C19-01, 3-Cyclohexyl-N-((2-(trifluoromethyl)thiazol-5-yl)methyl)-1H-indole-6-carboxamide]", "values": [
      {"measurement": "AD38 Viability Normalized Result (CPAM/DMSO %) at 10 μM", "setting": "AD38 cells", "result": 79, "unit": "%"},
      {"measurement": "activity at 10 µM", "setting": "[1]; [3]", "result": 30.8, "unit": "%"}
    ]},
    {"smiles": "Cc1[nH]c2cc(C(=O)NCc3cnc(C(F)(F)F)s3)ccc2c1C1CCCCC1", "note": "[Compound C20-01, 3-Cyclohexyl-2-methyl-N-((2-(trifluoromethyl)thiazol-5-yl)methyl)-1H-indole-6-carboxamide]", "values": [
      {"measurement": "AD38 Viability Normalized Result (CPAM/DMSO %) at 10 μM", "setting": "AD38 cells", "result": 47, "unit": "%"},
      {"measurement": "activity at 10 µM", "setting": "[1]; [3]", "result": 45.9, "unit": "%"}
    ]},
    {"smiles": "O=C1CC2CCCCN2c2ccc(C(=O)NCc3cnc(C(F)(F)F)s3)cc2N1", "note": "(stereo not shown) [Compound C21-01]", "values": [
      {"measurement": "AD38 Viability Normalized Result (cmpd/DMSO %) at 10 μM", "setting": "AD38 cells", "result": 39, "unit": "%"},
      {"measurement": "activity at 10 µM", "setting": "[1]; [2]", "result": 45.9, "unit": "%"}
    ]},
    {"smiles": "N#Cc1ccc(-c2ncc(CNC(=O)c3ccc4c(c3)NC(=O)CC3CCCCN43)s2)c(F)c1", "note": "(stereo not shown) [Compound C21-02]", "values": [
      {"measurement": "AD38 Viability Normalized Result (cmpd/DMSO %) at 10 μM", "setting": "AD38 cells", "result": 15, "unit": "%"},
      {"measurement": "activity at 10 µM", "setting": "[1]; [2]", "result": 48.9, "unit": "%"}
    ]},
    {"smiles": "Cc1c(C(=O)NCc2cnc(-c3ccc(OCCCN(C)C)cc3)s2)ccc2c1NC(=O)c1ccncc1S2(=O)=O", "note": "[Compound C22-01]", "values": [
      {"measurement": "AD38 Viability Normalized Result (cmpd/DMSO %) at 10 μM", "setting": "AD38 cells", "result": 92, "unit": "%"},
      {"measurement": "activity at 10 µM", "setting": "[1]; [2]", "result": 7.1, "unit": "%"}
    ]},
    {"smiles": "Cc1c(C(=O)NCc2cnc(-n3cccn3)s2)ccc2c1NC(=O)c1ccncc1S2(=O)=O", "note": "[Compound C22-02]", "values": [
      {"measurement": "AD38 Viability Normalized Result (cmpd/DMSO %) at 10 μM", "setting": "AD38 cells", "result": 85, "unit": "%"},
      {"measurement": "activity at 10 µM", "setting": "[1]; [2]", "result": 0.9, "unit": "%"}
    ]},
    {"smiles": "Cc1c(C(=O)NCc2cnc(-c3ccc(C#N)cc3F)s2)ccc2c1NC(=O)c1ccncc1S2(=O)=O", "note": "[Compound C22-03]", "values": [
      {"measurement": "AD38 Viability Normalized Result (cmpd/DMSO %) at 10 μM", "setting": "AD38 cells", "result": 90, "unit": "%"},
      {"measurement": "activity at 10 µM", "setting": "[1]; [2]", "result": 0.5, "unit": "%"}
    ]},
    {"smiles": "N#Cc1ccc(-c2ncc(CNC(=O)c3ccc4c(c3)NC(=O)C3CCCN3S4(=O)=O)s2)c(F)c1", "note": "(stereo not shown) [Compound C24-02]", "values": [
      {"measurement": "AD38 Viability Normalized Result (cmpd/DMSO %) at 10 μM", "setting": "AD38 cells", "result": 100, "unit": "%"},
      {"measurement": "activity at 10 µM", "setting": "[1]; [2]", "result": 43, "unit": "%"}
    ]},
    {"smiles": "O=C(NCc1cnc(-n2cccn2)s1)c1ccc2c(c1)NC(=O)C1CCCN1S2(=O)=O", "note": "(stereo not shown) [Compound C24-04]", "values": [
      {"measurement": "AD38 Viability Normalized Result (cmpd/DMSO %) at 10 μM", "setting": "AD38 cells", "result": 104, "unit": "%"},
      {"measurement": "activity at 10 µM", "setting": "[1]; [2]", "result": 7.7, "unit": "%"}
    ]}
  ]
}
